Data as given in ChEMBL document CHEMBL3272267, “Synthesis and antiinflammatory and hypnotic activity of 5-alkoxy-3-(N-substituted carbamoyl)-1-phenylpyrazoles” (J Med Chem, 1977).

Columns and labels:
Rattus norvegicus = experiment: Antiinflammatory activity in Wistar rat assessed as inhibition of carrageenan-induced hind paw edema at 100 mg/kg, po administered as gum arabic suspension 30 mins prior to carrageenin injection measured 3 hrs post-carrageenin injection; assay type: functional
Mus musculus = experiment: Hypnotic activity in ip dosed ddN mouse assessed as loss of righting reflex administered as gum arabic suspension measured within 60 mins; assay type: functional
[1] = Acute toxicity in po dosed mouse; assay type: organism-based; conditions: in vivo

SMILES	inhibition in vivo at 100 mg/kg (Rattus norvegicus) [%]	HD50 (Mus musculus) [mg/kg]	LD50 [1] [mg/kg]
COc1cc(C(=O)N2CCCCC2)nn1-c1ccccc1	28.2	–	–
COc1cc(C(N)=O)nn1-c1ccccc1	34.3	–	–
CNC(=O)c1cc(OC)n(-c2ccccc2)n1	57.9	–	–
COc1cc(C(=O)N(C)C)nn1-c1ccccc1	47.5	90	385
CCCCNC(=O)c1cc(OC)n(-c2ccccc2)n1	20.6	–	–
COc1cc(C(=O)NC(C)C)nn1-c1ccccc1	24.8	–	–
COc1cc(C(=O)N2CCCC2)nn1-c1ccccc1	29.2	–	–
COc1cc(C(=O)N2CCOCC2)nn1-c1ccccc1	73.8	–	–
CCN(CC)CCNC(=O)c1cc(OC)n(-c2ccccc2)n1	54.1	–	–
COc1cc(C(=O)N2CCN(C)CC2)nn1-c1ccccc1	56.8	–	–
COc1cc(C(=O)N2CCN(CCO)CC2)nn1-c1ccccc1	10.3	–	–
COc1cc(C(=O)Nc2ccccc2C(=O)O)nn1-c1ccccc1	24.1	–	–
COc1cc(C(=O)Nc2cccc(C(F)(F)F)c2)nn1-c1ccccc1	20.9	–	–
COc1cc(C(=O)N(C)c2ccc(C)cc2)nn1-c1ccccc1	22.3	–	–
CCOc1cc(C(=O)N(C)C)nn1-c1ccccc1	65.8	26	330
CCOc1cc(C(=O)N2CCOCC2)nn1-c1ccccc1	35.4	–	–
CCCOc1cc(C(=O)N(C)C)nn1-c1ccccc1	26.2	27	320
CC(C)Oc1cc(C(=O)N(C)C)nn1-c1ccccc1	43.9	49	525
CCCOc1cc(C(=O)N2CCOCC2)nn1-c1ccccc1	23.5	–	–
CCCCOc1cc(C(N)=O)nn1-c1ccccc1	26.5	94	360
CCCCOc1cc(C(=O)NC)nn1-c1ccccc1	65	48	325
CCCCOc1cc(C(=O)NCC)nn1-c1ccccc1	0	44	400
CCCCOc1cc(C(=O)N(C)C)nn1-c1ccccc1	18.7	33	460
C=CCNC(=O)c1cc(OCCCC)n(-c2ccccc2)n1	4.4	–	–

SMILES	inhibition in vivo at 100 mg/kg (Rattus norvegicus) [%]	HD50 (Mus musculus) [mg/kg]	LD50 [1] [mg/kg]
CCCCOc1cc(C(=O)NCCC)nn1-c1ccccc1	51.2	39	650
CCCCOc1cc(C(=O)NCCO)nn1-c1ccccc1	61.2	–	–
CCCCNC(=O)c1cc(OCCCC)n(-c2ccccc2)n1	43.3	70	370
CCCCOc1cc(C(=O)N(CC)CC)nn1-c1ccccc1	44.1	–	–
CCCCOc1cc(C(=O)NC(C)C)nn1-c1ccccc1	15.8	–	–
CCCCOc1cc(C(=O)N2CCCC2)nn1-c1ccccc1	17.6	–	–
CCCCOc1cc(C(=O)N2CCCCC2)nn1-c1ccccc1	15.6	–	–
CCCCOc1cc(C(=O)N2CCOCC2)nn1-c1ccccc1	32.9	–	–
CCCCOc1cc(C(=O)NCCN(CC)CC)nn1-c1ccccc1	23.6	–	–
CCCCOc1cc(C(=O)NCCCN(C)C)nn1-c1ccccc1	29.8	–	–
CCCCOc1cc(C(=O)N2CCN(C)CC2)nn1-c1ccccc1	32.3	–	–
CCCCOc1cc(C(=O)N2CCN(CCO)CC2)nn1-c1ccccc1	41.3	–	–
CCCCOc1cc(C(=O)Nc2ccccc2C(=O)O)nn1-c1ccccc1	0	–	–
CCCCOc1cc(C(=O)N2CCN(C(=O)c3cc(OCCCC)n(-c4ccccc4)n3)CC2)nn1-c1ccccc1	0	–	–
CCCCCOc1cc(C(=O)N(C)C)nn1-c1ccccc1	20	63	420
CC(C)CCOc1cc(C(=O)N(C)C)nn1-c1ccccc1	25.3	47	350
CCCCOc1cc(C(=O)N(C)CCN(C)C)nn1-c1ccccc1	28.2	–	–
CCCCOc1cc(C(=O)N(C)CCN(CC)CC)nn1-c1ccccc1	29.5	–	–
CCCCOc1cc(C(=O)N2CCN(CCOC(C)=O)CC2)nn1-c1ccccc1	43.9	–	–
CCCCOc1cc(C(=O)N2CCN(CCOC(=O)CC)CC2)nn1-c1ccccc1	0	–	–
CCCCOc1cc(C(=O)N2CCN(CCOC(=O)c3ccccc3)CC2)nn1-c1ccccc1	5.9	–	–
Cc1c(N(C)C)c(=O)n(-c2ccccc2)n1C [AMINOPYRINE]	66	–	–
CN1C(=O)NC(=O)C(C)(C2=CCCCC2)C1=O (stereo not drawn) [HEXOBARBITAL]	–	91	745
CCCCC1C(=O)N(c2ccccc2)N(c2ccccc2)C1=O [PHENYLBUTAZONE]	54.5	–	–
